Data published in patent publication US20140315972A1, “RS)-2-(2-oxo-4-phenylpyrrolidin-1-yl)acetamide compound having modulatory activity with a commensurate effect, pharmaceutical substance (variants) and its application, composition (variants) thereof” (priority 2011, published 2014).
Read-outs that look alike come from different tables or passages of the source. Marks after values point to notes of the source that are not given here.

Experiments:
Format in all cases: in vivo
mice [1] = test: Hyperkinesis induced by 5-oxytryptophan (negative symptoms of schizophrenia); conditions: for Number of shakings: mice, 5-oxytryptophan 300 mg/kg i.p.
Method: Studies have been conducted on white outbred male mice (18-24 g), in comparison with the olanzapine (Zyprexa) with intraperitoneal injection.
Phenotropil in all studied doses reduced hyperkinesia (head shakings): at doses of 100 mg/kg—by 88%, at 200 mg/kg—by 87%, and at 300 mg/kg—by 89%. […] Effect of Phenotropil on serotonergic system requires more detailed testing and studies of lower doses, since there is no reason to exclude neuroleptic activity in this test. Preventive or proactive (protective) use of lower doses may be appropriate also in dopaminergic pathology.

rats = test: Hypotensive activity in rats (cannula in carotid artery); conditions: adult rats; i.p. and intragastric 50-100 mg/kg; one hour after administration
Method: Study of the effect of Phenotropil on cerebral blood flow, systemic blood pressure (BP) and the nervous regulation of blood circulation was made on 6 anesthetized cats under general anesthesia (urethane+chloralose). Phenotropil was administered intravenously at a dose of 50 mg/kg with distilled water; the baseline state of each animal prior to drug administration served as control. Cerebral blood flow was recorded in the common carotid artery (CCA) by an electromagnetic meter. The nervous regulation of cerebral circulation was judged by the vasomotor pressor reflex (VPR). The results of the experiment show (Table 6.1) that the racemic compound causes a moderate increase in cerebral blood flow in anesthetized animals. The cerebrovascular effect is accompanied by vascular hypotension with manifestation of oppression of the vasomotor reflex. The biphasic behaviour of SBP is consistent with the pattern of the effect on TSIP under no abnormalities with stabilization of the normotonic state. At intraperitoneal and intragastric administration of Phenotropil (25-300 mg/kg) to white outbred adult rats of both sexes, hypotensive activity (by blood method through the cannula connected to the carotid artery) was manifested one hour after administration at doses of 50-100 mg/kg and was in average 13%±2.85, while with increasing doses this effect disappears. […]

mice [2] = test: Hypobaric hypoxia in pressure chamber, adult mice; conditions: for Duration of life: adult mice, hypobaric hypoxia
HSP32 = HSP32 level in brain structures (Western blot); conditions: Wistar rats, no Ns
[3] = Distribution by internal organs after oral administration (GLC); conditions: rats, 100 mg/kg orally; for concentration at 0.25 h / concentration at 0.5 h / concentration at 1 h / concentration at 1.5 h / concentration at 2 h / concentration at 4 h / concentration at 6 h / concentration at 8 h: both sexes, outbred white, rat, po; for concentration at 0.5 h: 0.50 h; for concentration at 1.5 h: 1.50 h
Method: The degree of tropism of the compound in various organs by quantitative content varies and is arranged in descending order as follows: liver, kidneys, heart, and brain. Rapid penetration into the brain confirms the good kinetic ability to penetrate through the blood-brain barrier. In 15 minutes, its presence is detected in the brain, heart, liver and kidneys. In the brain, liver and kidneys, the maximum concentration is achieved in an hour, and 6 hours after oral administration the compound is not detectable any more. […] The maximum concentration of Phenotropil in the myocardium is detected later than in the brain, but it is eliminated from the myocardium also two hours later. In the liver, the maximum concentration is found after an hour and then the concentration is gradually decreasing. One hour after administration, the concentration in the kidneys reaches the maximum, with a gradual decrease further on.

mice [4] = test: Maximum life span (MLS) of mice; conditions: for The maximum life span (number of days in %): mice, change vs untreated control = 100
Method: The maximum life span (MLS) of mice according to our long-term statistical observations is 2.7-3, 2 years, i.e. in average 2.95 years or 1077 days. For this study we selected mice (10 individuals per group), males with dominant behavior in mixed groups, that safely survived to 985 days without signs of pronounced senility and with satisfactory orientation-exploratory behavior, determined by the “open field test” method. Phenotropil in doses of 25, 50 and 100 mg/kg was administered orally with 5.0% glucose solution. Glucose solution was used solely to improve the solubility of the drug. One control group received the glucose solution and the second one—distilled water. The third control group was not treated.

mice [5] = test: Fertility of female mice aged 510 days
Method: Investigation of the effect of Phenotropil on the fertility of mice was performed in the spring period in females aged 510 days (30 animals per group). Termination of the reproductive age was established by placing every three females to a fertile male. Mating was determined by the presence of vaginal plugs. Females not mated during one month were included in the study. Throughout the entire study period (32 days), Phenotropil was administered one time per day intragastrically to the experimental group in a dose of 100 mg/kg with distilled water; the control animals received distilled water. On the eighth day of the experiment, the females were introduced to males in the following combination: two experimental and one control animal or […]. The procedure was repeated for females not covered at each stage. The same fertile males were not used for mating.

[6] = brain, read-out: Contents of Phenotropil in brain
[7] = heart, read-out: Contents of Phenotropil in heart
[8] = kidney, read-out: Contents of Phenotropil in kidney
[9] = liver, read-out: Contents of Phenotropil in liver
[10] = 100 mg/kg i.g. daily, by the morning of day 9

SMILES: NC(=O)CN1CC(c2ccccc2)CC1=O (racemic) [Compound 1, (RS)-2-(2-oxo-4-phenylpyrrolidine-1-yl)acetamide]
- reduction of hyperkinesia (head shakings) (mice [1]; 100 mg/kg): 88%
- reduction of hyperkinesia (head shakings) (mice [1]; 200 mg/kg): 87%
- reduction of hyperkinesia (head shakings) (mice [1]; 300 mg/kg): 89%
- Number of shakings (mice [1]; 100 mg/kg): 1.4 ± 0.5
- Number of shakings (mice [1]; 200 mg/kg): 1.5 ± 0.8
- Number of shakings (mice [1]; 300 mg/kg): 1.2 ± 0.5
- hypotensive activity, average (rats): 13%±2.85
- increase of survival time vs control (mice [2]; 50 mg/kg): 65.0%
- increase of survival time vs control (mice [2]; 100 mg/kg): 147.8%
- increase of survival time vs control (mice [2]; 300 mg/kg): 591.0%
- Duration of life (mice [2]; 50 mg/kg): 3.8 ± 0.5 min
- Duration of life (mice [2]; 100 mg/kg): 5.7 ± 1.2 min
- Duration of life (mice [2]; 300 mg/kg): 15.9 ± 0.4 min
- HSP32 Total vs outbred control (HSP32; 200 mg/kg single): +68.8 * %
- decrease of gene expression (heat shock protein) (HSP32; tested dose): 17.7%
- concentration at 0.25 h [3, 6]: 1600 ± 200 ng/g
- concentration at 0.5 h [3, 6]: 2000 ± 300 ng/g
- concentration at 1 h [3, 6]: 6400 ± 800 ng/g
- concentration at 1.5 h [3, 6]: 4000 ± 600 ng/g
- concentration at 2 h [3, 6]: 1200 ± 300 ng/g
- concentration at 4 h [3, 6]: 400 ± 200 ng/g
- concentration at 0.25 h [3, 7]: 3700 ± 600 ng/g
- concentration at 0.5 h [3, 7]: 7900 ± 900 ng/g
- concentration at 1 h [3, 7]: 10100 ± 1000 ng/g
- concentration at 1.5 h [3, 7]: 14300 ± 1300 ng/g
- concentration at 2 h [3, 7]: 12600 ± 1200 ng/g
- concentration at 4 h [3, 7]: 8400 ± 1000 ng/g
- concentration at 6 h [3, 7]: 4400 ± 800 ng/g
- concentration at 0.25 h [3, 8]: 33200 ± 3400 ng/g
- concentration at 0.5 h [3, 8]: 37500 ± 4000 ng/g
- concentration at 1 h [3, 8]: 55700 ± 5800 ng/g
- concentration at 1.5 h [3, 8]: 50400 ± 6000 ng/g
- concentration at 2 h [3, 8]: 37200 ± 4100 ng/g
- concentration at 4 h [3, 8]: 28000 ± 3200 ng/g
- concentration at 6 h [3, 8]: 16000 ± 2100 ng/g
- concentration at 8 h [3, 8]: 10100 ± 1300 ng/g
- concentration at 0.25 h [3, 9]: 25600 ± 2400 ng/g
- concentration at 0.5 h [3, 9]: 30100 ± 4300 ng/g
- concentration at 1 h [3, 9]: 75800 ± 8200 ng/g
- concentration at 1.5 h [3, 9]: 67700 ± 7100 ng/g
- concentration at 2 h [3, 9]: 59600 ± 5400 ng/g
- concentration at 4 h [3, 9]: 30200 ± 3400 ng/g
- concentration at 6 h [3, 9]: 17700 ± 2100 ng/g
- concentration at 8 h [3, 9]: 11400 ± 1600 ng/g
- time after which compound is not detectable (brain, liver and kidneys as printed) [3]: 6 h
- time of complete elimination from the heart [3]: 8 h
- time of first detection in brain, heart, liver and kidneys [3]: 15 min
- time of maximum concentration in brain, liver and kidneys [3]: in an hour
- time of maximum concentration in the heart [3]: 1 hour 50 minutes
- increase of maximum life span (mice [4]; 25 mg/kg): 23.3%
- increase of maximum life span (mice [4]; 100 mg/kg): 24.0%
- increase of life span, average of all experimental groups (mice [4]; male mice aged 985 days, 25, 50, 100 mg/kg orally): 22.0%
- The maximum life span (number of days in %) (mice [4]; 25 mg/kg + 5.0% glucose solution): +20.1 * %
- The maximum life span (number of days in %) (mice [4]; 50 mg/kg + 5.0% glucose solution): +15.0 * %
- The maximum life span (number of days in %) (mice [4]; 100 mg + 5.0% glucose solution): +20.8 * %
- females left uncovered (of 30) (mice [5]; 100 mg/kg i.g. daily, after 32 days): 6
- females covered (of 30) (mice [5]; [10]): 9
- females covered, % of the total number in the group (mice [5]; [10]): 30.0%
- females covered (of 30) (mice [5]; 100 mg/kg i.g. daily, by the morning of day 17): 11
- females covered (of 30) (mice [5]; 100 mg/kg i.g. daily, by the morning of day 25): 4
- Fertility (% of animals in the group) (mice [5]; mice, 100 mg/kg): 80.0 * %
